Source: patent publication US5432042A, “Method for obtaining a printing plate according to the silver salt diffusion transfer process” (Agfa-Gevaert, N.V., priority 1993, dated 1995)

Assay: pKa of the mercapto group by titration with hydrochloric acid
Assay type: physicochemical
Conditions: 0.002 mole/liter in water at pH 11, titrated with hydrochloric acid (0.1 mole/liter)
Description: The pKa of the hydrophobizing compounds in connection with the present invention were determined according to the method described in "Ionization Constants of Acids and Bases--A Laboratory Manual" written by Adrien Albert and E. P. Serjeant and Edited by John Wiley & Sons (New York) page 110-112 (1962).
In these particular cases, the hydrophobizing compounds were dissolved in water at pH 11. The concentration of the hydrophobizing compounds was 0.002 mole/liter and the mixture was then titrated with a solution of hydrochloric acid (0.1 mole/liter).

pKa | SMILES
4.8 | CCCCCCCc1nnc(S)o1 [2-mercapto-5-n.heptyl-oxa-3,4-diazole, reference compound]
3.3 | CCCCCCNC(=O)Cn1nnnc1S [compound 1]
3.4 | CCCCCCn1nnnc1S [compound 3]
